Reference: ChEMBL document CHEMBL4421719, “Modulation of k2p channels” (2016)
Calls of active or inactive are those of the source. The rule behind the calls is not given here.

Assays:
[1] = target: T1, Potassium channel subfamily K member 2 (Homo sapiens, UniProt O95069); assay: Inhibition of K2P2.1 (unknown origin) expressed in Xenopus oocytes assessed as effect on channel currents at -80 mV holding potential by two-electrode voltage clamp assay; format: cell-based
T1 sequence (O95069 whole entry): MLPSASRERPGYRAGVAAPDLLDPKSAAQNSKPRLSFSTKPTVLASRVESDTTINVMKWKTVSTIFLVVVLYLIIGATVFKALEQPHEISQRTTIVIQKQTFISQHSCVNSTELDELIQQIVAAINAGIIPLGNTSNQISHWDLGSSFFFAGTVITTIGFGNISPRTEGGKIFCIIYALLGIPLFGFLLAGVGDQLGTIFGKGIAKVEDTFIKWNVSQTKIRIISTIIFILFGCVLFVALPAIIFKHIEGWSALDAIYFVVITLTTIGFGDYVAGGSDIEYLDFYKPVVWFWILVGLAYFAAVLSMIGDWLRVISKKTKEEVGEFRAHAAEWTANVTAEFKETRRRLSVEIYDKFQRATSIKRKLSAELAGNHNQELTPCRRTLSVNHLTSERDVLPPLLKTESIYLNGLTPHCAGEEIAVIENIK

Homo sapiens = species on record: Homo sapiens; assay: Selectivity index, ratio of IC50 for inhibition of Trk1p (unknown origin) expressed in SGY1528 yeast cells assessed as inhibition of cell growth by alamar blue dye based assay to IC50 for inhibition of K2P2.1 (unknown origin) expressed in SGY1528 yeast cells assessed as inhibition of cell growth by alamar blue dye based assay
[2] = target: T2, Potassium channel subfamily K member 2 (Homo sapiens) (UniProt O95069); assay: Activation of K2P2.1 (unknown origin) expressed in Xenopus oocytes assessed as effect on channel currents at +40 mV holding potential at 100 uM by two-electrode voltage clamp assay; format: cell-based
T2 sequence (whole entry): T1 sequence (O95069 whole entry)

[3] = target: T2, Potassium channel subfamily K member 2 (Homo sapiens); assay: Inhibition of K2P2.1 (unknown origin) expressed in SGY1528 yeast cells assessed as inhibition of cell growth at 10 uM incubated for 24 hrs by alamar blue dye based assay relative to control
[4] = target: T2, Potassium channel subfamily K member 2 (Homo sapiens); assay: Antagonist activity at K2P2.1 (unknown origin) expressed in Xenopus oocytes assessed as suppression of channel currents at 20 uM at -80 mV holding potential by two-electrode voltage clamp assay relative to control; format: cell-based
[5] = target: T2, Potassium channel subfamily K member 2 (Homo sapiens); assay: Inhibition of K2P2.1 (unknown origin) expressed in Xenopus oocytes assessed as effect on channel currents at -80 mV holding potential at 100 uM by two-electrode voltage clamp assay relative to control; format: cell-based
[6] = target: T3, Potassium channel subfamily K member 10 (Homo sapiens, UniProt P57789); assay: Activation of K2P10.1 (unknown origin) expressed in Xenopus oocytes assessed as effect on channel currents at -80 mV holding potential by two-electrode voltage clamp assay; format: cell-based
T3 sequence (P57789 whole entry): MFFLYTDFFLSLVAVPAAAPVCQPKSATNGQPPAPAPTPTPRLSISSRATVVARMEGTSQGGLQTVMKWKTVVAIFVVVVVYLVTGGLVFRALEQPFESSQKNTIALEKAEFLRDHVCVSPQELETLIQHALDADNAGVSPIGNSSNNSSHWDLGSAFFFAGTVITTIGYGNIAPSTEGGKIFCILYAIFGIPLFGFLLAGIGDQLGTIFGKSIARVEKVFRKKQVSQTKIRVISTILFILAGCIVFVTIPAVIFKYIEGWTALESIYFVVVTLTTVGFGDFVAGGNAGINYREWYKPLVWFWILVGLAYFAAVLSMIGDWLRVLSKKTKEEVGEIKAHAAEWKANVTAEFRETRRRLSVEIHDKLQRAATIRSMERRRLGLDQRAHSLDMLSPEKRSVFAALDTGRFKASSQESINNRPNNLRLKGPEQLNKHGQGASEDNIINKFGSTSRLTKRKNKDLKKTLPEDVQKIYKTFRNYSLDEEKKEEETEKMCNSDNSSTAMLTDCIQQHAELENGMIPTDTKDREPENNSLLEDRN

[7] = target: T2, Potassium channel subfamily K member 2 (Homo sapiens); assay: Activation of K2P2.1 (unknown origin) expressed in Xenopus oocytes assessed as effect on channel currents at 500 uM at -80 mV holding potential by two-electrode voltage clamp assay; format: cell-based
[8] = target: Potassium voltage-gated channel subfamily KQT member 2 (Homo sapiens) (UniProt O43526); assay: Activation of Kv7.2 (unknown origin) expressed in Xenopus oocytes assessed as effect on channel currents at -80 mV holding potential by two-electrode voltage clamp assay relative to control; format: cell-based
Chain of Potassium voltage-gated channel subfamily KQT member 2 (Homo sapiens) (O43526 whole entry): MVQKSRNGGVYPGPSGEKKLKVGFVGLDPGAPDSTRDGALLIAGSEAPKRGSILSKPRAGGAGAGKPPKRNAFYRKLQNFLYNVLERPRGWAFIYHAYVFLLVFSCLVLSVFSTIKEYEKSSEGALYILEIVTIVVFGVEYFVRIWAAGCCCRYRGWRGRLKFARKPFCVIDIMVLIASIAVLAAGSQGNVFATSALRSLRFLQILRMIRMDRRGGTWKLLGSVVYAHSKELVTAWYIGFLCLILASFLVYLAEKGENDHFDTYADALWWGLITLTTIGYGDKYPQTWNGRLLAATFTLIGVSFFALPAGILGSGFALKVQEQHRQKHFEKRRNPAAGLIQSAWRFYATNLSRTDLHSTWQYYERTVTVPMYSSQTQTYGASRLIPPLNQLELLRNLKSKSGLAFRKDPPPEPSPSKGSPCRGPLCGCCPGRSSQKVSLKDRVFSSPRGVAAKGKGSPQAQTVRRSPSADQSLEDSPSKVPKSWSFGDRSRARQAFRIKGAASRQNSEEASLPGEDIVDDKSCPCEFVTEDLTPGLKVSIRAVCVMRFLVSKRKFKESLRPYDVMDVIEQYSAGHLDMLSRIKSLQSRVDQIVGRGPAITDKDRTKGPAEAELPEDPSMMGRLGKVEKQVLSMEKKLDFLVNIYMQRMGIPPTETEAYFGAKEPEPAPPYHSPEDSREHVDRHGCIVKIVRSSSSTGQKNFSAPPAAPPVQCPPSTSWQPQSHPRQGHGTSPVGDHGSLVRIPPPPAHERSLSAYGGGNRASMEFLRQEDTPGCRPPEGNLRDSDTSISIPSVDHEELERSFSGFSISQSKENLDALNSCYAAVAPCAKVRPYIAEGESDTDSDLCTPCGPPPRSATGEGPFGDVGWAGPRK

[9] = target: T4, Potassium channel subfamily K member 10 (Homo sapiens) (UniProt P57789); assay: Activation of K2P10.1 (unknown origin) expressed in Xenopus oocytes assessed as effect on channel currents at 500 uM at -80 mV holding potential by two-electrode voltage clamp assay; format: cell-based
T4 sequence (whole entry): T3 sequence (P57789 whole entry)

[10] = target: Potassium channel subfamily K member 3 (Homo sapiens) (UniProt O14649); assay: Activation of K2P3.1 (unknown origin) expressed in Xenopus oocytes assessed as effect on channel currents at -80 mV holding potential at 500 uM by two-electrode voltage clamp assay relative to control; format: cell-based
Chain of Potassium channel subfamily K member 3 (Homo sapiens) (O14649 whole entry, looked up): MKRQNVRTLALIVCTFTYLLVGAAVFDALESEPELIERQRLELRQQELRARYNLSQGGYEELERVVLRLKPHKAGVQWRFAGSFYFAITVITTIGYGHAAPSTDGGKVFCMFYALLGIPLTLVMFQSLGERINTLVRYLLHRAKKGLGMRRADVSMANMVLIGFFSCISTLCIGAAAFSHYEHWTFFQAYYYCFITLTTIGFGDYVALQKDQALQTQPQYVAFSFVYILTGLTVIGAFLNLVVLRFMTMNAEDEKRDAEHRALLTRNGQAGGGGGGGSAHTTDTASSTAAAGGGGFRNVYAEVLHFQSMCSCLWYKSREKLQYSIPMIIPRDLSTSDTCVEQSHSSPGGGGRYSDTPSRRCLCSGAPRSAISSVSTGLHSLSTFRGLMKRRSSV

[11] = target: Potassium channel subfamily K member 3 (Homo sapiens) (UniProt O14649); assay: Activation of K2P3.1 (unknown origin) expressed in Xenopus oocytes assessed as effect on channel currents at -80 mV holding potential by two-electrode voltage clamp assay relative to control; format: cell-based
[12] = target: T2, Potassium channel subfamily K member 2 (Homo sapiens); assay: Reversible activation of K2P2.1 (unknown origin) expressed in Xenopus oocytes assessed as effect on channel currents at 100 uM at -80 mV holding potential by two-electrode voltage clamp assay relative to control; format: cell-based
[13] = target: T2, Potassium channel subfamily K member 2 (Homo sapiens); assay: Activation of K2P2.1 (unknown origin) expressed in Xenopus oocytes assessed as effect on channel currents at -80 mV holding by two-electrode voltage clamp assay relative to control; format: cell-based
[14] = target: T2, Potassium channel subfamily K member 2 (Homo sapiens); assay: Activation of K2P2.1 (unknown origin) expressed in Xenopus oocytes assessed as effect on channel currents at +40 mV holding potential at 400 uM by two-electrode voltage clamp assay; format: cell-based
[15] = target: T2, Potassium channel subfamily K member 2 (Homo sapiens); assay: Activation of K2P2.1 (unknown origin) expressed in Xenopus oocytes assessed as effect on channel currents at 200 uM at -80 mV holding potential by two-electrode voltage clamp assay; format: cell-based
[16] = target: Potassium voltage-gated channel subfamily KQT member 2 (Homo sapiens) (UniProt O43526); assay: Activation of Kv7.2 (unknown origin) expressed in Xenopus oocytes assessed as effect on channel currents at 500 uM at -80 mV holding potential by two-electrode voltage clamp assay relative to control; format: cell-based
[17] = target: Potassium voltage-gated channel subfamily KQT member 2 (Homo sapiens) (UniProt O43526); assay: Activation of Kv7.2 (unknown origin) expressed in Xenopus oocytes assessed as effect on channel currents at 100 uM at -80 mV holding potential by two-electrode voltage clamp assay relative to control; format: cell-based

| SMILES | IC50 [1] [µM] | Ratio IC50 (Homo sapiens) | Activity [2] | growth inhibition (GI) [3] [%] | inhibition [4] [%] | inhibition [5] [%] | EC50 [6] [µM] | Activity [7] | Activity [8] | Emax [9] | Emax [10] | Activity [11] | fold change (FC) [12] | Emax [13] | Activity [14] | Activity [15] | Emax [16] | Activity [17] |
| --- | --- | --- | --- | --- | --- | --- | --- | --- | --- | --- | --- | --- | --- | --- | --- | --- | --- | --- |
| Cc1cccc(-n2ncc3c(NCCc4ccccc4)ncnc32)c1 | 21 | < 2 | Active | 66 | 30 | 70 | – | – | – | – | – | – | – | – | – | – | – | – |
| O=C(O)CCn1c2ccc(Cl)cc2c2cc(Cl)ccc21 | – | < 2 | – | 66 | – | – | ≥ 250 | Active | inactive | 10.1 | 1.2 | inactive | < 11 | 11 | Active | Active | 1.8 | inactive |
